According to patent publication US4528290A, “Stimulating dopamine D-1 receptors” (Eli Lilly and Company, priority 1984, dated 1985):

Tested on: dopamine D-1 receptors (cyclic AMP efflux, striatal tissue)
Experiment: tissue or blood
Method: A second, particularly sensitive indicator of D-1 agonist activity is the determination of the cyclic AMP efflux in tissue slices using a procedure based on Stoof and Kebabian (loc. cit). In this procedure, striatal tissue is dissected from rat brains and chopped into 0.3 mm.×[…]. fragments. The tissue fragments are suspended in the appropriate buffer system (Earl's balanced salt solution, for example) and the suspension is continuously aerated with 95:5 O2 /CO2 while being maintained at 37° C. Just prior to use, the tissue fragments are transferred to fresh media to which is added bovine serum albumin (2.5 mg./ml.) and 3-isobutyl-1-methylxanthine (1 millimolar) to block degradation of cyclic AMP. The tissue fragments are incubated in buffer without drugs and are then transferred to the same media with added drug. Aliquots of incubation media, with and without drugs, are assayed for cyclic AMP concentration by a specific radioimmunoassay. The effect of the drug or drugs on efflux is expressed as a percentage of the resting efflux. The following medium was employed:
Sulpiride is known to be an antagonist on pituitary D-2 receptors. Addition of sulpiride to a test system, such as that described above, blocks any D-2 effect of a drug in reducing cyclic AMP production.

Oc1cc2c(cc1O)C(c1ccccc1)CNCC2 (stereo not shown) [SKF38393, 1,2,3,4-tetrahydro-7,8-dihydroxy-1-phenyl-1H-3-benzazepine]
activation at 1 µM (Rattus norvegicus, read-out: increase of cyclic AMP production): 145%

CCCN1CCC[C@@H]2Cc3[nH]ncc3C[C@H]21 [4aR, 8aR enantiomer, 4aR,8aR-5-n-propyl-4,4a,5,6,7,8,8a,9-octahydro-1H(and 2H)-pyrazolo[4,3-g]-quinoline]
cyclic AMP production increase by SKF38393 after addition of the compound (compound at 0.5×10^-6 M added to SKF38393 10^-6 molar (145% alone)): 42%

CCN1CCCC1CNC(=O)c1cc(S(N)(=O)=O)ccc1OC (stereo not shown) [sulpiride]
effect of sulpiride on the lowering of the SKF38393 cyclic AMP increase by the trans-(-)-enantiomer (sulpiride 10^-6 M): suppressed | effect of sulpiride on the increase in cyclic AMP efflux caused by A (sulpiride 10^-6 M with A 5 × 10^-7 M): no effect on the increase in cyclic AMP efflux
